Measured values: paper PMC11076327, “CXCR2 antagonist navarixin in combination with pembrolizumab in select advanced solid tumors: a phase 2 randomized trial” (Investigational New Drugs, 2024)

Legend:
[1] = tested on: mismatch repair–proficient CRC; parameters: method as in PMID 26028255; settings: 18 patients with mismatch repair–proficient CRC; ref [21]; cited from earlier work
[2] = tested on: previously treated advanced NSCLC; parameters: method as in PMID 31154919; settings: pembrolizumab monotherapy; previously treated advanced NSCLC cohort; 103/449; ref [24]; cited from earlier work
[3] = tested on: treatment-refractory metastatic CRPC; parameters: method as in PMID 31774688; settings: pembrolizumab monotherapy, 9/199, ref [22]; cited from earlier work
[4] = tested on: metastatic triple-negative breast cancer; parameters: method as in PMID 34476645; settings: in combination with paclitaxel; ref [35]; cited from earlier work
[5] = tested on: pancreatic ductal adenocarcinoma cells; parameters: method as in PMID 30396947, PMID 29749433; settings: ref [15], [16]; cited from earlier work
melanoma = melanoma in vivo; ref [13], [14]; cited from earlier work
CRC = CRC in vivo; ref [13], [14]; cited from earlier work
liver metastases = tested on: liver metastases; parameters: method as in PMID 21035946; settings: liver metastases in vivo; ref [17]; cited from earlier work
[6] = tested on: absolute neutrophil count (ANC) and sputum neutrophil count; parameters: method as in PMID 25695403, PMID 22702508; settings: patients with chronic obstructive pulmonary disease and asthma; ref [10], [11]; cited from earlier work
[7] = Navarixin pharmacokinetics in combination with pembrolizumab; format: in vivo, human; settings: for tlast: median (range); for AUC(0-inf) / AUC(0-t) / Cmax: human, plasma, oral, geometric mean (% geometric CV); for Geometric mean trough concentration: all tumor types combined
Description: Primary endpoints were objective response rate (ORR; proportion of patients with confirmed complete or partial response) by RECIST v1.1 as assessed by the investigator and safety based on the occurrence of dose-limiting toxicities (DLTs), adverse events (AEs), and treatment discontinuations because of AEs. Secondary endpoints included investigator-assessed ORR by immune-related RECIST (iRECIST), investigator-assessed progression-free survival (PFS; time from first dose of study drug until the first documented disease progression or death from any cause) by RECIST v1.1 and iRECIST, overall survival (OS; time from first dose of study drug until death from any cause), pharmacodynamics (assessed via changes in ANC), and PK of navarixin when administered in combination with pembrolizumab.
Blood samples for assessment of ANC were collected predose on day 1 of every cycle; between 6 and 12 hours after dosing on days 1, 3, and 8 of cycle 1; and between 6 and 12 hours after dosing on day 1 of cycle 2. Blood samples for assessment of navarixin pharmacokinetic parameters were collected predose and at 1, 2, 4, 6, and between 8 and 12 hours after dosing on day 1 of cycle 1; predose and between 6 and 12 hours after dosing on days 3 and 8 of cycle 1; predose and at 1, 2, 4, 6, and between 8 and 12 hours after dosing on day 1 of cycle 2; and predose during cycles 3 and 4. […]

[8] = tested on: metastatic castration-resistant prostate cancer (CRPC) preclinical models; parameters: method as in PMID 31801883; settings: ref [6]; cited from earlier work
[9] = tested on: triple-negative breast cancer cells; parameters: method as in PMID 30396947, PMID 29749433; settings: ref [15], [16]; cited from earlier work
[10] = CRPC, navarixin 30 mg + pembrolizumab 200 mg, Cycle 1 day 1, n=20
[11] = CRPC, navarixin 30 mg + pembrolizumab 200 mg, Cycle 2 day 1 (steady state), n=18
[12] = CRPC, navarixin 100 mg + pembrolizumab 200 mg, Cycle 1 day 1, n=20
[13] = CRPC, navarixin 100 mg + pembrolizumab 200 mg, Cycle 2 day 1 (steady state), n=17
[14] = MSS CRC, navarixin 30 mg + pembrolizumab 200 mg, Cycle 1 day 1, n=19
[15] = MSS CRC, navarixin 30 mg + pembrolizumab 200 mg, Cycle 2 day 1 (steady state), n=15
[16] = MSS CRC, navarixin 100 mg + pembrolizumab 200 mg, Cycle 1 day 1, n=21
[17] = MSS CRC, navarixin 100 mg + pembrolizumab 200 mg, Cycle 2 day 1 (steady state), n=18
[18] = NSCLC, navarixin 30 mg + pembrolizumab 200 mg, Cycle 1 day 1, n=12
[19] = NSCLC, navarixin 30 mg + pembrolizumab 200 mg, Cycle 2 day 1 (steady state), n=12
[20] = NSCLC, navarixin 100 mg + pembrolizumab 200 mg, Cycle 1 day 1, n=13
[21] = NSCLC, navarixin 100 mg + pembrolizumab 200 mg, Cycle 2 day 1 (steady state), n=11

With pembrolizumab as the molecule, how does the ORR [1] read?
The ORR was 0%.

What about the ORR [2] of the same molecule?
Its ORR is 23%.

What about the ORR [3] of the same molecule?
The ORR was 5%.

For CC(C)Cc1ccc([C@@H](C)C(=O)NS(C)(=O)=O)cc1 [reparixin], which “Benefit of combination therapy compared with paclitaxel alone” value [4] is on record?
Its value is “no benefit”.

With CC[C@@H](Nc1c(Nc2cccc(C(=O)N(C)C)c2O)c(=O)c1=O)c1ccc(C)o1 [Navarixin] as the molecule, how does the “Effect on colony formation” value [5] read?
Its value is “inhibited colony formation”.

What about the “Effect on tumor growth” value (melanoma) of the same molecule?
The value was “inhibited tumor growth”.

What about the “Effect on tumor growth” value (CRC) of the same molecule?
Its value is “inhibited tumor growth”.

What about the “Effect on apoptosis of malignant cells” value (liver metastases) of the same molecule?
Its value is “induced apoptosis”.

What about the “Effect on neutrophil counts” value [6] of the same molecule?
The value was “reductions in absolute neutrophil count (ANC) as well as sputum neutrophil count”.

And the tlast [7, 10]?
The tlast was 8.00 (7.83–10.00) h.

What about the tlast [7, 11] of the same molecule?
The tlast was 8.01 (6.50–8.70) h.

And the tlast [7, 12]?
The tlast was 8.00 (7.37–8.08) h.

And the tlast [7, 13]?
The tlast was 8.00 (5.93–8.17) h.

What about the tlast [7, 14] of the same molecule?
Its tlast is 8.0 (7.27–8.33) h.

What about the tlast [7, 15] of the same molecule?
Its tlast is 7.93 (6.00–8.17) h.

What about the tlast [7, 16] of the same molecule?
Its tlast is 8.00 (7.12–10.02) h.

And the tlast [7, 17]?
The tlast was 8.00 (7.87–8.13) h.

And the tlast [7, 18]?
Its tlast is 8.00 (7.83–8.25) h.

And the tlast [7, 19]?
Its tlast is 8.00 (7.80–8.08) h.

And the tlast [7, 20]?
Its tlast is 8.00 (6.00–8.07) h.

What about the tlast [7, 21] of the same molecule?
The tlast was 8.00 (6.03–8.08) h.

What about the “AUC0-∞, navarixin 100 mg versus navarixin 30 mg” value ([7]; across all tumor types) of the same molecule?
Its value is “approximately 2.5 fold”.

And the AUC(0-inf) ([7]; CRPC, navarixin 30 mg + pembrolizumab 200 mg, Cycle 1 day 1, n=19)?
Its AUC(0-inf) is 376 ng·h/mL.

And the AUC(0-t) [7, 10]?
The AUC(0-t) was 363 ng·h/mL.

And the AUC(0-inf) [7, 11]?
The AUC(0-inf) was 534 ng·h/mL.

And the AUC(0-t) [7, 11]?
Its AUC(0-t) is 457 ng·h/mL.

And the Cmax [7, 11]?
Its Cmax is 191 ng/mL.

And the AUC(0-inf) ([7]; CRPC, navarixin 100 mg + pembrolizumab 200 mg, Cycle 1 day 1, n=18)?
Its AUC(0-inf) is 954 ng·h/mL.

What about the AUC(0-t) [7, 12] of the same molecule?
The AUC(0-t) was 853 ng·h/mL.

And the AUC(0-inf) ([7]; CRPC, navarixin 100 mg + pembrolizumab 200 mg, Cycle 2 day 1 (steady state), n=11)?
Its AUC(0-inf) is 1340 ng·h/mL.

What about the AUC(0-t) [7, 13] of the same molecule?
Its AUC(0-t) is 925 ng·h/mL.

What about the Cmax [7, 13] of the same molecule?
Its Cmax is 272 ng/mL.

And the AUC(0-inf) ([7]; MSS CRC, navarixin 30 mg + pembrolizumab 200 mg, Cycle 1 day 1, n=17)?
The AUC(0-inf) was 482 ng·h/mL.

And the AUC(0-t) [7, 14]?
The AUC(0-t) was 464 ng·h/mL.

What about the Cmax [7, 14] of the same molecule?
Its Cmax is 162 ng/mL.

What about the AUC(0-inf) ([7]; MSS CRC, navarixin 30 mg + pembrolizumab 200 mg, Cycle 2 day 1 (steady state), n=10) of the same molecule?
The AUC(0-inf) was 584 ng·h/mL.

And the AUC(0-t) [7, 15]?
The AUC(0-t) was 443 ng·h/mL.

And the Cmax [7, 15]?
The Cmax was 147 ng/mL.

And the AUC(0-inf) ([7]; MSS CRC, navarixin 100 mg + pembrolizumab 200 mg, Cycle 1 day 1, n=16)?
The AUC(0-inf) was 1120 ng·h/mL.

And the AUC(0-t) [7, 16]?
The AUC(0-t) was 1070 ng·h/mL.

What about the Cmax [7, 16] of the same molecule?
The Cmax was 354 ng/mL.

And the AUC(0-inf) ([7]; MSS CRC, navarixin 100 mg + pembrolizumab 200 mg, Cycle 2 day 1 (steady state), n=9)?
Its AUC(0-inf) is 954 ng·h/mL.

What about the AUC(0-t) [7, 17] of the same molecule?
The AUC(0-t) was 928 ng·h/mL.

What about the Cmax [7, 17] of the same molecule?
The Cmax was 276 ng/mL.

What about the AUC(0-inf) ([7]; NSCLC, navarixin 30 mg + pembrolizumab 200 mg, Cycle 1 day 1, n=10) of the same molecule?
Its AUC(0-inf) is 469 ng·h/mL.

What about the AUC(0-t) [7, 18] of the same molecule?
The AUC(0-t) was 427 ng·h/mL.

What about the Cmax [7, 18] of the same molecule?
Its Cmax is 181 ng/mL.

What about the AUC(0-inf) ([7]; NSCLC, navarixin 30 mg + pembrolizumab 200 mg, Cycle 2 day 1 (steady state), n=10) of the same molecule?
Its AUC(0-inf) is 450 ng·h/mL.

What about the AUC(0-t) [7, 19] of the same molecule?
The AUC(0-t) was 451 ng·h/mL.

And the Cmax [7, 19]?
Its Cmax is 179 ng/mL.

What about the AUC(0-inf) ([7]; NSCLC, navarixin 100 mg + pembrolizumab 200 mg, Cycle 1 day 1, n=9) of the same molecule?
The AUC(0-inf) was 1230 ng·h/mL.

And the AUC(0-t) [7, 20]?
Its AUC(0-t) is 1140 ng·h/mL.

And the Cmax [7, 20]?
Its Cmax is 324 ng/mL.

And the AUC(0-inf) ([7]; NSCLC, navarixin 100 mg + pembrolizumab 200 mg, Cycle 2 day 1 (steady state), n=7)?
The AUC(0-inf) was 1360 ng·h/mL.

And the AUC(0-t) [7, 21]?
Its AUC(0-t) is 1080 ng·h/mL.

And the Cmax [7, 21]?
The Cmax was 338 ng/mL.

What about the Cmax ([7]; male, CRPC, navarixin 30 mg + pembrolizumab 200 mg, Cycle 1 day 1, n=20) of the same molecule?
Its Cmax is 156 ng/mL.

And the Cmax ([7]; male, CRPC, navarixin 100 mg + pembrolizumab 200 mg, Cycle 1 day 1, n=20)?
The Cmax was 298 ng/mL.

What about the “Geometric mean trough concentration” value ([7]; navarixin 30 mg, steady state) of the same molecule?
The value was 7.71 ng/mL.

And the “Geometric mean trough concentration” value ([7]; navarixin 100 mg, steady state)?
The value was 14.5 ng/mL.

And the “Steady-state exposure, 100-mg dose compared with 30-mg dose” value ([7]; steady state)?
The value was “approximately 2.5 fold”.

And the “Effect on neuroendocrine lineage plasticity and enzalutamide resistance” value [8]?
Its value is “reversed neuroendocrine lineage plasticity and enzalutamide resistance”.

What about the “Effect on colony formation” value [9] of the same molecule?
Its value is “inhibited colony formation”.
